Our source for the relative viability values is the supplement of paper PMC10307832.

Assay in all cases: relative viability (nuclei count vs DMSO), 5 days (fraction); higher = more cells survive
Compound in test [1]: C1=CC=C(C(=C1)C2=CC=C(C=C2)C3=CSC4=C3C(=C(C(=O)N4)C#N)O)O + CS(=O)(=O)CCNCc1ccc(-c2ccc3ncnc(Nc4ccc(OCc5cccc(F)c5)c(Cl)c4)c3c2)o1 [Lapatinib] (partner 2 µM)
A digest of the protocol: (§1)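 For relative viability, nuclei counts in treated wells were divided by those in vehicle wells. Lung cancer cell lines had been pin-tool dosed in 1536-well plates the day after seeding and cultured for 5 days, then fixed and stained in one step (final 0.05% Triton X-100, 1% formaldehyde, 1 ug/ml Hoechst) and imaged at 4×. Doses were one drug alone or a fixed anchor-drug dose plus five library-drug doses (not always all listed) in √10 steps, and values are duplicate-plate medians.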

Compound in test [2]: C1=CC=C(C(=C1)C2=CC=C(C=C2)C3=CSC4=C3C(=C(C(=O)N4)C#N)O)O + O=C(c1cc(Cc2n[nH]c(=O)c3ccccc23)ccc1F)N1CCN(C(=O)C2CC2)CC1 [Olaparib] (partner 8 µM)
A digest of the protocol:
as §1

Compound in the test “TGX 221 + Pictilisib”: CC1=CN2C(=O)C=C(N=C2C(=C1)C(C)NC3=CC=CC=C3)N4CCOCC4 [TGX 221] + CS(=O)(=O)N1CCN(Cc2cc3nc(-c4cccc5[nH]ncc45)nc(N4CCOCC4)c3s2)CC1 [Pictilisib] (partner 1 µM)
A digest of the protocol:
as §1

Compound in test [3]: O=C(CCCCCCNC(=O)c1cnc(N(c2ccccc2)c2ccccc2)nc1)NO [Ricolinostat] + C[C@@H](Oc1cc(-c2cnn(C3CCNCC3)c2)cnc1N)c1c(Cl)ccc(F)c1Cl [Crizotinib] (partner 1 µM)
A digest of the protocol:
as §1

Take NCI-H1792: the relative viability in test [1] (first compound 0.253 µM) is 0.543; in test [1] (first compound 0.8 µM), 0.854; in test [1] (first compound 2.53 µM) it was 0.92; in test [1] (first compound 8 µM), 0.658; in test [2] (first compound 0.253 µM) it was 0.324; in test [2] (first compound 0.8 µM), 0.365. Besides, the relative viability in test [2] (first compound 2.53 µM) amounted to 0.317; in test [2] (first compound 8 µM), 0.389; with TGX 221 + Pictilisib (first compound 0.08 µM) it was 0.29; in the test with TGX 221 + Pictilisib (first compound 0.253 µM), 0.281; with TGX 221 + Pictilisib (first compound 0.8 µM), 0.294; in the test with TGX 221 + Pictilisib (first compound 2.53 µM) it was 0.246. Moreover, the relative viability with TGX 221 + Pictilisib (first compound 8 µM) was 0.228; in test [3] (first compound 0.08 µM), 0.849; in test [3] (first compound 0.253 µM), 0.988; in test [3] (first compound 0.8 µM) it was 0.913; in test [3] (first compound 2.53 µM) it was 1.
